Assays:
M3 muscarinic receptors = biological target: T1, M3 muscarinic receptors (Homo sapiens, UniProt P20309); experiment: Radioligand binding assay, muscarinic M3 receptors; conditions: test compound 1×10^−6 M
T1 construct: expressed in transfected cells; host or cells: CHO cells
Method in brief: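 Radioligand competition binding, detected by scintillation counting; non-specific binding defined with excess unlabelled ligand. Results given as % inhibition of control specific binding; IC50 from Hill-equation fit of competition curves, Ki via Cheng-Prusoff with radioligand KD from Scatchard plot.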

5-HT7 receptor = biological target: T2, 5-HT7 receptor (Homo sapiens, UniProt P34969); experiment: Radioligand binding assay, serotoninergic 5-HT7 receptors; conditions: binding assay result in %, Table 5a
T2 construct: purchased PerkinElmer
Method in brief: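 Ki values used the Cheng–Prusoff equation, with KD from Scatchard analysis, applied to IC50 from Hill fits of human 5-HT7 radioligand competition curves. Bound radioligand was counted by scintillation, and excess unlabelled ligand set the non-specific binding.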

[1] = biological target: dopaminergic receptors D3 (Homo sapiens, UniProt P35462); experiment: Radioligand binding assay, dopaminergic D3 receptors; conditions: test compound 1×10^−6 M
Method in brief: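 Scintillation read-out. Specific = total − nonspecific (excess cold ligand). Data as % of control specific binding / % inhibition; IC50 by Hill fit; Ki = IC50/(1+L/KD), KD from Scatchard plot.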

[2] = biological target: dopaminergic receptors D2 (Homo sapiens, UniProt P14416); experiment: Radioligand binding assay, dopaminergic D2 receptors; conditions: for inhibition at 1 µM: binding assay, test compound 1×10^−6 M; for Ki: read-out: Inhibition constants Ki for D2 receptors, D2
Method in brief: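 Displacement of radioligand from human dopamine D2, D3 or D4.4 receptors, counted by scintillation; specific binding is total minus binding under excess unlabelled ligand. IC50 values come from Hill curve fits of percent inhibition, then converted to Ki by Cheng-Prusoff using Scatchard-derived KD.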

5-HT6 receptor = biological target: T3, 5-HT6 receptor (Homo sapiens, UniProt P50406); experiment: Radioligand binding assay, serotoninergic 5-HT6 receptors; conditions: for inhibition at 1 µM: binding assay result in %, Table 5a; for Ki: read-out: Inhibition constants Ki, 5-HT6
T3 construct: purchased PerkinElmer
Method in brief: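 Values are Ki from Cheng–Prusoff, taking IC50 from Hill nonlinear regression of competition curves and KD from a Scatchard plot. Specific binding was total minus binding with excess unlabelled ligand. Radioligand displacement was detected by scintillation counting, and data were also reported as percent of control specific binding.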

[3] = test system: α1 adrenergic receptors (rat cerebral cortex); experiment: Radioligand binding assay, adrenergic α1 receptors; conditions: test compound 1×10^−6 M
Method in brief: (§1)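 Values derive from radioligand displacement, with non-specific binding defined by excess cold ligand and detection by scintillation. Hill-fit IC50s were converted to Ki via Cheng-Prusoff using Scatchard-derived Kd; percent inhibition of control specific binding also reported.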

5-HT2A receptor = biological target: T4, 5-HT2A receptor (Homo sapiens, UniProt P28223); experiment: Radioligand binding assay, serotoninergic 5-HT2A receptors; conditions: for inhibition at 1 µM: binding assay result in %, Table 5a; for Ki: read-out: Inhibition constants Ki, 5-HT2A
T4 construct: purchased PerkinElmer
Method in brief: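 Competition curves from scintillation-counted specific binding (total minus binding with excess unlabelled ligand) were Hill-fitted to give IC50, converted to Ki via Cheng-Prusoff using Scatchard-derived Kd.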

[4] = biological target: T5, H1 histaminergic receptors (Homo sapiens, UniProt P35367); experiment: Radioligand binding assay, histaminergic H1 receptors; conditions: human recombinant (HEK-293 cells), [3H]pyrilamine 1 nM
T5 construct: expressed in transfected cells; host or cells: HEK-293 cells
Method in brief: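 Competition binding at human H1 receptors; specific binding taken as total minus non-specific binding in excess unlabelled ligand, scintillation read-out. IC50 from Hill-equation fit of competition curves; Ki by Cheng-Prusoff using radioligand concentration and Kd (from Scatchard plot).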

σ receptors = experiment: Radioligand binding assay, σ receptors; conditions: rat cerebral cortex, [3H]DTG 8 nM
Method in brief: as §1

[5] = biological target: T6, serotonin transporter (SERT) (Homo sapiens, UniProt P31645); experiment: Radioligand binding assay, serotonin transporter (SERT); conditions: for inhibition at 1 µM: binding assay, test compound 1×10^−6 M; for Ki: read-out: Inhibition constants Ki for SERT, SERT
T6 construct: expressed in transfected cells; host or cells: CHO cells
Method in brief: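 Values are derived from competition curves fitted by the Hill equation to give IC50, then converted to Ki by Cheng-Prusoff with radioligand Kd from Scatchard analysis. Specific binding equals total minus non-specific (excess cold ligand), counted by scintillation, and is also expressed as percent inhibition of control.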

5-HT2C receptor = biological target: T7, 5-HT2C receptor (Homo sapiens, UniProt P28335); experiment: Radioligand binding assay, serotoninergic 5-HT2C receptors; conditions: test compound 1×10^−6 M
T7 construct: expressed in transfected cells; host or cells: HEK-293 cells
T7 sequence (P28335 33-458): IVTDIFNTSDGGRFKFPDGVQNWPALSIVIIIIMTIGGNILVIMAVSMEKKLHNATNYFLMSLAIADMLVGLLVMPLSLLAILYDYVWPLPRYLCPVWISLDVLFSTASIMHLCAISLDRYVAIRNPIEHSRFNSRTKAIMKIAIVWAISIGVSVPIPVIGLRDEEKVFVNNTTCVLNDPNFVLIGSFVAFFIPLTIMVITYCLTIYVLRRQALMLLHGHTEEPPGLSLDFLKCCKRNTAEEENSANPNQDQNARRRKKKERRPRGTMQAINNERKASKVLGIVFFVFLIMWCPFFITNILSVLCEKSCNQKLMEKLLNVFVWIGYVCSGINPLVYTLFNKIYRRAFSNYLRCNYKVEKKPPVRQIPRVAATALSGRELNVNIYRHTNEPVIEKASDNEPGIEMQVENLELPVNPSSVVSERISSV

T5 sequence (P35367 whole entry): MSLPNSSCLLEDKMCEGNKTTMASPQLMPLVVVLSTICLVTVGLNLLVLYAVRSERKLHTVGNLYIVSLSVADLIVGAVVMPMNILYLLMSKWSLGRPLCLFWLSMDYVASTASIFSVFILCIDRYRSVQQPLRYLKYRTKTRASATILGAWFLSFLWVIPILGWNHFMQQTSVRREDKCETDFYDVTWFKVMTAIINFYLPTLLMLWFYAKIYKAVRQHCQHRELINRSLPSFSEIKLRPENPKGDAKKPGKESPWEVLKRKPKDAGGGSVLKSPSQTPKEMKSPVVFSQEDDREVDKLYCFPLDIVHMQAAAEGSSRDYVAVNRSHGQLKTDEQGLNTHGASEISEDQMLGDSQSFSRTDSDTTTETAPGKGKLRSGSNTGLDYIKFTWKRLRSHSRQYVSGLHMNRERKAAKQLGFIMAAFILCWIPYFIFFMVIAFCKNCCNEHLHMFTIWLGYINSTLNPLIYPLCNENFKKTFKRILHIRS
T2 sequence (P34969 whole entry): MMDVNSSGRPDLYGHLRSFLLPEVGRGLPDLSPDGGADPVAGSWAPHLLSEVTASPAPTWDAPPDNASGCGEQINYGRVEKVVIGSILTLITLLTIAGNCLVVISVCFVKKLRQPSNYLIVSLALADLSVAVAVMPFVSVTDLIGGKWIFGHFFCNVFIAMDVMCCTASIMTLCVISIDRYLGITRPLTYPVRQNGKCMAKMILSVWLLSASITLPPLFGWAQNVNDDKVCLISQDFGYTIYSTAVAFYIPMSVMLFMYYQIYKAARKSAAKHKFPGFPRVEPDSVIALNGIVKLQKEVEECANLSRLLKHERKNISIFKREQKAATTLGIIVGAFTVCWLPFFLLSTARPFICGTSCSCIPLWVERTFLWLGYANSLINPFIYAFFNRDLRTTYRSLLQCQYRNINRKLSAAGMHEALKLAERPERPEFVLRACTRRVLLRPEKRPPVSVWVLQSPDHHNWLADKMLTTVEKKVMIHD
Sequence of dopaminergic receptors D2 (P14416 whole entry): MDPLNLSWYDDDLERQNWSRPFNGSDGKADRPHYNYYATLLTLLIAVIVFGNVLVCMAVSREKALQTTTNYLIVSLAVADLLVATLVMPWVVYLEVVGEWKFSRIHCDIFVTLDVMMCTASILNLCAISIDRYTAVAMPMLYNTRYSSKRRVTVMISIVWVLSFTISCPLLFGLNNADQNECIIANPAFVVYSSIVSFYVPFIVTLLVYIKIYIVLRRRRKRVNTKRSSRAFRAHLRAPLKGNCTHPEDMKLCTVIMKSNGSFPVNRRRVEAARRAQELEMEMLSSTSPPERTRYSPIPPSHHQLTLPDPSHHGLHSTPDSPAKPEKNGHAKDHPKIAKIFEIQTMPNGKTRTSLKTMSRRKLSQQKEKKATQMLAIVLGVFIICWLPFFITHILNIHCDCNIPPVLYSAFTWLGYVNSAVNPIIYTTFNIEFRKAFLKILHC
T1 sequence (P20309 whole entry): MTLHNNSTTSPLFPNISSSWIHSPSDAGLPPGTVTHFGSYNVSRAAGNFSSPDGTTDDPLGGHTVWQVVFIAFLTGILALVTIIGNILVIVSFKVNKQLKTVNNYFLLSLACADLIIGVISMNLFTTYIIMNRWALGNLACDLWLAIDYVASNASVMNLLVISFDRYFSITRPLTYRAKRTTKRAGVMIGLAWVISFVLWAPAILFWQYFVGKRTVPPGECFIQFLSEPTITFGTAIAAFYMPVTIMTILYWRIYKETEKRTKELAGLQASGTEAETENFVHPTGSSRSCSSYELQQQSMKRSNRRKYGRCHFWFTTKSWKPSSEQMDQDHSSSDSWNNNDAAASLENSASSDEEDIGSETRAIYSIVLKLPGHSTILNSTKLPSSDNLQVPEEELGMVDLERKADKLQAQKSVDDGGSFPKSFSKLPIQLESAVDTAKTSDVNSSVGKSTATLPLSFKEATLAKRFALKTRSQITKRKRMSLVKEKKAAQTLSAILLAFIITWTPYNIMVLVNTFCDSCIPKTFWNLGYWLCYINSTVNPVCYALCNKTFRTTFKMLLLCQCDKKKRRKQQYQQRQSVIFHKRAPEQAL
T3 sequence (P50406 whole entry): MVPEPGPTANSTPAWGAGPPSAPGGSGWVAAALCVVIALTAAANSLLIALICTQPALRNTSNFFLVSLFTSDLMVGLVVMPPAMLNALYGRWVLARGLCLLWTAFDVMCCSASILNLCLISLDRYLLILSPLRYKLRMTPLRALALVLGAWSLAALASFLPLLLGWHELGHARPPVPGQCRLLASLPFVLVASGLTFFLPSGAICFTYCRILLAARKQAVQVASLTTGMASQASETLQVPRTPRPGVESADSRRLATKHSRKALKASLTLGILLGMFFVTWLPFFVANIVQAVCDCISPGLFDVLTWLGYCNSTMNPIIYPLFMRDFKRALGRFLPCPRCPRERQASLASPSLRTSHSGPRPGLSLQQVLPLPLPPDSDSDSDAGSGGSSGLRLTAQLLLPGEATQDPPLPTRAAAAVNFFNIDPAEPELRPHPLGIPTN
Sequence of dopaminergic receptors D3 (P35462 whole entry): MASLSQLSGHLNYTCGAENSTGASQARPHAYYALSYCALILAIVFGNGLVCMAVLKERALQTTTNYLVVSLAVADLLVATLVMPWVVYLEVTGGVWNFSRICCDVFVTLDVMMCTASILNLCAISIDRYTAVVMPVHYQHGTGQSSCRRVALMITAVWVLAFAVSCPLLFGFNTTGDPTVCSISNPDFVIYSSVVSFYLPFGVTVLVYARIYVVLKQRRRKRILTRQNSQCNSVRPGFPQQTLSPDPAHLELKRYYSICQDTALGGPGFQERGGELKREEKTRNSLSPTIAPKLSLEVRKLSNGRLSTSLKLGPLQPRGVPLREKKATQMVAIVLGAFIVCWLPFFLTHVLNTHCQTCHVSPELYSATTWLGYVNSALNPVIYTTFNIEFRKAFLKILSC
T6 sequence (P31645 whole entry): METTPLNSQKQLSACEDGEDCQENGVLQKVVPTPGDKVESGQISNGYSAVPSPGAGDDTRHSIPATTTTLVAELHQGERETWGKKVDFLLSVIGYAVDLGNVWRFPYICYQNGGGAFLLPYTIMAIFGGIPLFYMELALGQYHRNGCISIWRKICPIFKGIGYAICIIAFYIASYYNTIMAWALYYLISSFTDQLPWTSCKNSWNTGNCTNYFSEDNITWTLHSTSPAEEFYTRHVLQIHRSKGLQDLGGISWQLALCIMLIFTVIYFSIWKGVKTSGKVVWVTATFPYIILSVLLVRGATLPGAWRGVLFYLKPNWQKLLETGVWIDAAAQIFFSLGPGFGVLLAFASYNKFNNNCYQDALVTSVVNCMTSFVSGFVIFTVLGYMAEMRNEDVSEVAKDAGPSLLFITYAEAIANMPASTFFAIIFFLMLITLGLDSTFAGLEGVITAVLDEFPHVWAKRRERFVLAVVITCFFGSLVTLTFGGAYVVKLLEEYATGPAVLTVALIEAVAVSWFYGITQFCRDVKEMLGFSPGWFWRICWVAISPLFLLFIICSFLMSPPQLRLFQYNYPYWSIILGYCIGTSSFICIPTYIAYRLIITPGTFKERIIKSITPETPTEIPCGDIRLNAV
T4 sequence (P28223 whole entry): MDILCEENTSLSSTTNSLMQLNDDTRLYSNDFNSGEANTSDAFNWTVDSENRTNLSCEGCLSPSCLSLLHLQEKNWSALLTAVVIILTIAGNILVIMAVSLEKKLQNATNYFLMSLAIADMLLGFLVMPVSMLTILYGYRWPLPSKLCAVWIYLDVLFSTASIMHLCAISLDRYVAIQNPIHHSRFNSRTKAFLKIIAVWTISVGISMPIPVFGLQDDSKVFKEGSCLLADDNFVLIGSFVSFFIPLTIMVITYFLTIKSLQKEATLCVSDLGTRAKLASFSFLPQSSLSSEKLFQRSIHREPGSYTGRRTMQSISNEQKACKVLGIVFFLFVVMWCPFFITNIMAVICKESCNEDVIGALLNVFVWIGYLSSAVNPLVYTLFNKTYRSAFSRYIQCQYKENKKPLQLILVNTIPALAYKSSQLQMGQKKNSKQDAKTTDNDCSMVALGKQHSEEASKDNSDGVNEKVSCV

Compound | inhibition at 1 µM (M3 muscarinic receptors) [%] | inhibition at 1 µM (5-HT7 receptor) [%] | inhibition at 1 µM [1] [%] | inhibition at 1 µM [2] [%] | inhibition at 1 µM (5-HT6 receptor) [%] | Ki (5-HT6 receptor) [µM] | α1 [%] [3] [%] | inhibition at 1 µM (5-HT2A receptor) [%] | inhibition at 1 µM [4] [%] | σ [%] (σ receptors) | inhibition at 1 µM [5] [%] | Ki [5] [µM] | inhibition at 1 µM (5-HT2C receptor) [%] | Ki [2] [µM] | Ki (5-HT2A receptor) [µM]
Cc1cccc(S(=O)(=O)NC2CCN(CCCc3c[nH]c4ccc(Cl)cc34)C2)c1 (stereo not shown) [Compound 86, N-[1-[3-(5-chloro-1H-indol-3-yl)propyl]pyrrolidin-3-yl]-3-methyl-benzenesulphonamide] | 1 | 98 | 97 | 93 | 98 | 0.013 | 50 | 97 | 70 | 65 | 105 | 0.0011 | – | – | –
CC1(C)Cc2cccc(OCCN3CCC(NS(=O)(=O)c4cccc(O)c4)C3)c2O1 (stereo not shown) [Compound 107, N-[1-[2-[(2,2-Dimethyl-3H-benzofuran-7-yl)oxy]ethyl]pyrrolidin-3-yl]-3-hydroxybenzenesulphonamide] | 8 | 84 | 97 | 89 | 39 | – | 28 | 97 | 30 | 47 | -4 | – | 86 | – | –
CC1(C)Cc2cccc(OCCN3CCC(NS(=O)(=O)c4ccc5ccccc5c4)C3)c2O1 (stereo not shown) [Compound 108, N-[1-[2-[(2,2-Dimethyl-3H-benzofuran-7-yl)oxy]ethyl]pyrrolidin-3-yl]naphthalene-2-sulphonamide] | -4 | 98 | 95 | 93 | 59 | – | 40 | 98 | 23 | 45 | 36 | – | – | – | –
O=S(=O)(NC1CCN(CCOc2cccc3ccccc23)C1)c1ccc2ccccc2c1 (stereo not shown) [Compound 116, N-[1-[2-(1-Naphthyloxy)ethyl]pyrrolidin-3-yl]naphthalene-2-sulphonamide] | 9 | -49 | 98 | 91 | 95 | 0.071 | 23 | 96 | – | 56 | 95 | 0.031 | – | – | –
O=S(=O)(NCC1CN(CCOc2cccc3ccccc23)C1)c1ccc2ccccc2c1 [Compound 122, N-[[1-[2-(1-Naphthyloxy)ethyl]azetidin-3-yl]methyl]naphthalene-2-sulphonamide] | 30 | 100 | 100 | 99 | 99 | 0.013 | 53 | 83 | – | 81 | 98 | 0.017 | 98 | – | –
O=S(=O)(NCC1CCN(CCOc2cccc3ccccc23)C1)c1ccc2ccccc2c1 (stereo not shown) [Compound 124, N-[[1-[2-(1-Naphthyloxy)ethyl]pyrrolidin-3-yl]methyl]naphthalene-2-sulphonamide] | 49 | 99 | 94 | 94 | 99 | – | 33 | 87 | – | 82 | 100 | – | 80 | – | –
Cc1c(S(=O)(=O)NCC2CN(CCCc3noc4cc(F)ccc34)C2)sc2ccc(F)cc12 [Compound 130, 5-Fluoro-N-[[1-[3-(6-fluoro-1,2-benzoxazol-3-yl)propyl]azetidin-3-yl]methyl]-3-methyl-benzothiophene-2-sulphonamide] | 15 | 98 | 94 | 97 | 98 | 0.0097 | 86 | 100 | 51 | 94 | 64 | – | 89 | 0.01 | 0.0042
Cc1c(S(=O)(=O)NCC2CN(CCCc3noc4cc(F)ccc34)C2)sc2ccc(Cl)cc12 [Compound 131, 5-Chloro-N-[[1-[3-(6-fluoro-1,2-benzoxazol-3-yl)propyl]azetidin-3-yl]-methyl]-3-methyl-benzothiophene-2-sulphonamide] | 17 | 95 | 94 | 97 | 97 | 0.009 | 70 | 99 | 51 | 92 | 55 | – | 88 | 0.019 | 0.0055
O=S(=O)(NCC1CN(CCCc2noc3cc(F)ccc23)C1)c1ccc2scnc2c1 [Compound 132, N-[[1-[3-(6-Fluoro-1,2-benzoxazol-3-yl)propyl]azetidin-3-yl]methyl]-1,3-benzothiazole-5-sulphonamide] | 10 | 94 | 60 | 82 | 69 | – | 86 | 97 | 33 | 80 | 20 | – | 43 | – | –
O=S(=O)(NCC1CN(CCCc2noc3cc(F)ccc23)C1)c1cccc2ccccc12 [Compound 133, N-[[1-[3-(6-Fluoro-1,2-benzoxazol-3-yl)propyl]azetidin-3-yl]methyl]-naphthalene-1-sulphonamide] | 17 | 97 | 74 | 93 | 92 | – | 90 | 95 | 58 | 93 | 42 | – | 47 | – | –
O=S(=O)(NCC1CN(CCCc2noc3cc(F)ccc23)C1)c1ccc2ccccc2c1 [Compound 134, N-[[1-[3-(6-Fluoro-1,2-benzoxazol-3-yl)propyl]azetidin-3-yl]methyl]-naphthalene-2-sulphonamide] | 34 | 95 | 80 | 96 | 94 | – | 61 | 99 | 45 | 88 | 47 | – | 87 | – | –

Reference: US20140135310A1, “SULPHONAMIDE DERIVATIVES OF ALICYCLIC AMINES FOR THE TREATMENT OF CENTRAL NERVOUS SYSTEM DISEASES” (Adamed Sp. z o.o., priority 2011, published 2014)
